Columns and labels:
OVCAR3 p-RB = experiment: pRB ICW assay in OVCAR3 cells; format: cell-based; settings: Homo sapiens, OVCAR-3, incubated with compound for 2 hours
Description: pRB ICW Assay in OVCAR3 Cells
OVCAR3 cells were maintained in RPMI (Corning, Catalog #: 10-040-CV) supplemented with 10% v/v FBS (Gibco, Catalog #: 26140-079), 1% v/v Penicillin Streptomycin (Gibco, Catalog #15140-122.) OVCAR3 cells grown at log phase were trypsinized, counted, and resuspended in fresh medium to reach a final density of 6.7e4 cells/mL and 75 μL of culture were dispensed into a 384-well plate (Falcon, cat #353962) using Multidrop Combi dispenser (Thermo Scientific). The next day, compounds were dispensed as a 9-point, ½ log serial dilution using a Tecan digital dispenser (D300e), and cells were incubated with compound for 2 hours in a humidified incubator at 37° C. A reference compound at a final concentration of 10 μM was used as a control for maximum inhibition. Each compound was tested in duplicates in each experiment. At the end of the incubation, 25 μL of 16% paraformaldehyde (Electron Microscopy, cat #15710) was slowly added to each well and the plate was incubated at room temperature (RT) for 30 minutes to fix cells. Cells were then permeabilized by incubating with 50 μL/well of wash buffer (lx PBS with 0.1% Triton X-100) 5×5 minutes, followed by 1 hour blocking with 30 μL/well of Odyssey blocking buffer (Li-COR, cat #927-40000), all at RT. Anti-phosphor RB antibody (Cell signaling 8516S) was diluted 1:1000 in Odyssey blocking buffer and 20 μL was added to all wells and incubated overnight in 4° C. with gently rocking. The next day, cells were washed 5×5 min with 50 μL/well of wash buffer, followed with 1 hour incubation with secondary antibody and DRAQ5 diluted in Odyssey blocking buffer (1:500 dilution for secondary antibody and 1:2000 dilution for DRAQ5), 5×5 min washes, and one last wash with water. Plates were dried in 37° C. oven for 5 min and scanned using Li-COR Odyssey CLx imaging system to acquire intensities at 700 and 800 nm channels.

CDK4/Cyclin D1 = molecular target: T1, CDK4/Cyclin D1 (Homo sapiens, UniProt P11802); experiment: CDK4/CyclinD1 enzymatic activity assay (TR-FRET); format: biochemical; settings: ATP 2 mM final, read-out: CDK4_D1 IC50
T1 construct: purchased ProQinase; host or cells: insect cell
Description: CDK4/CyclinD1 Enzymatic Activity Assay
(§1) The inhibitory activity of compounds was evaluated in vitro using TR-FRET assay with white 384-well low volume microplate (Greiner Bio-One). CDK4/Cyclin D1 catalyzed phosphorylation of peptide in the presence and absence of compounds was measured and used in IC5 determination. Recombinant protein complex CDK4/Cyclin D1, expressed from insect cell, was purchased from ProQinase. Testing compounds were dissolved in DMSO at 1 mM and tested in 9-dose IC50 mode. The reaction mixture was prepared by mixing CDK4/CyclinD1 (1 nM final), ULight-4E-BP1 (100 nM final, Perkinelmer, TRF0128-D), and ATP (2 mM final) in assay buffer (20 mM of HEPES pH 7.4, 1 mM of EGTA, 0.05% BSA, 0.005% Tween 20, and 1 mM TCEP). The compound of interest in DMSO was added to each well in 3-fold serial dilution by dispenser (TECAN D300E) to make a 9.9 μL of reaction mixture. After 20 minutes preincubation at room temperature, 0.1 μL MgCl2 (10 mM final) was added to initiate the reaction. Following a 45 minute incubation at 37° C., the reaction was stopped by addition of 2 μL of quenching buffer consisting of Lance detection buffer (Perkinelmer CR97-100C), LANCE Ultra Europium-anti-P-4E-BP1 (Perkinelmer, TRF0216-D), EDTA, and incubate at room temperature for an additional 60 minutes in the dark. The reaction signal was measured by Envision multimode plate reader (PerkinElmer, 2102-0010). IC50 values were determined by fitting the data to the standard 4 parameters with Hill Slope using GraphPad Prism software.

CDK2/Cyclin E2 = CDK2/Cyclin E2 (Homo sapiens, UniProt P24941); experiment: CDK2/CyclinE2 enzymatic activity assay (TR-FRET); format: biochemical; settings: ATP 1 mM final, read-out: CDK2_E1 IC50
Description: CDK2/CyclinE2 Enzymatic Activity Assay
as §1, with “Bio-One). CDK2/Cyclin E2” for “Bio-One). CDK4/Cyclin D1”, “in IC50” for “in IC5”, “complex CDK2/Cyclin E2,” for “complex CDK4/Cyclin D1,”, “mixing CDK2/CyclinE2” for “mixing CDK4/CyclinD1”, “ULight-4E-BP1 (50” for “ULight-4E-BP1 (100”, “ATP (1” for “ATP (2”

T1 sequence (P11802 whole entry): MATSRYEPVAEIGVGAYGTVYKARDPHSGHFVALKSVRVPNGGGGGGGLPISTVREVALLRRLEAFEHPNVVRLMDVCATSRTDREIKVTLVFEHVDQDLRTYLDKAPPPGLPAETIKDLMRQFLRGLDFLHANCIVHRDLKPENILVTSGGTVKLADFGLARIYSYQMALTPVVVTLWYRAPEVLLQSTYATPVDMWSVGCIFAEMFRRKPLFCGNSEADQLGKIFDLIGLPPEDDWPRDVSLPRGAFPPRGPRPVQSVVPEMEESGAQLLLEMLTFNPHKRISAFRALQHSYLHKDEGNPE
T1 sequence (P24385 whole entry partner): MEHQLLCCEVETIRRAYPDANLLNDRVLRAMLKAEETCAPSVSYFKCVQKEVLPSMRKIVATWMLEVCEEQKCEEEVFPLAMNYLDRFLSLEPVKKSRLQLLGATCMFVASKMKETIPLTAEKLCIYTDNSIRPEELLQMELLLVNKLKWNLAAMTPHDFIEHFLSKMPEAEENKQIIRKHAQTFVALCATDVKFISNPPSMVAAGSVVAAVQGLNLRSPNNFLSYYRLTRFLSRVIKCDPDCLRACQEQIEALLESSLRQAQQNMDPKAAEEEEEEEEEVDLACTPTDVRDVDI

Row | SMILES | IC50 (OVCAR3 p-RB) | IC50 (CDK4/Cyclin D1) | IC50 (CDK2/Cyclin E2)
1 | CS(=O)(=O)N1CCC(Nc2ncc(C(F)(F)F)c(-c3cnc(-c4ccc(CO)cc4Cl)s3)n2)CC1 [Example 9, [3-Chloro-4-[5-[2-[(1-methylsulfonylpiperidin-4-yl)amino]-5-(trifluoromethyl)pyrimidin-4-yl]-1,3-thiazol-2-yl]phenyl]methanol] | 100 to 1000 nM | ≤ 100 nM | ≤ 100 nM
2 | Cc1nc(CO)ccc1-c1ncc(-c2nc(NC3CCN(S(C)(=O)=O)CC3)ncc2C(F)(F)F)s1 [Example 10, [6-Methyl-5-[5-[2-[(1-methylsulfonylpiperidin-4-yl)amino]-5-(trifluoromethyl)pyrimidin-4-yl]-1,3-thiazol-2-yl]pyridin-2-yl]methanol] | > 1000 nM | ≤ 100 nM | ≤ 100 nM
3 | Cc1ccc(-c2ncc(-c3nc(NC4CCN(S(C)(=O)=O)CC4)ncc3C(F)(F)F)s2)c(C)c1 [Example 11, 4-[2-(2,4-dimethylphenyl)-1,3-thiazol-5-yl]-N-(1-methylsulfonyl-piperidin-4-yl)-5-(trifluoromethyl)pyrimidin-2-amine] | > 1000 nM | 100 to 1000 nM | ≤ 100 nM
4 | Cc1cc(CO)ccc1-c1ncc(-c2nc(NC3CCN(S(C)(=O)=O)CC3)ncc2C(F)(F)F)s1 [Example 12, [3-methyl-4-[5-[2-[(1-methylsulfonylpiperidin-4-yl)amino]-5-(trifluoromethyl)pyrimidin-4-yl]-1,3-thiazol-2-yl]phenyl]methanol] | 100 to 1000 nM | ≤ 100 nM | ≤ 100 nM
5 | CNCc1ccc(-c2ncc(-c3nc(NC4CCN(S(C)(=O)=O)CC4)ncc3C(F)(F)F)s2)c(C)c1 [Example 13, 4-[2-[2-Methyl-4-(methylaminomethyl)phenyl]-1,3-thiazol-5-yl]-N-(1-methylsulfonylpiperidin-4-yl)-5-(trifluoromethyl)pyrimidin-2-amine] | 100 to 1000 nM | ≤ 100 nM | ≤ 100 nM
6 | COC(=O)N(C)Cc1ccc(-c2ncc(-c3nc(NC4CCN(S(C)(=O)=O)CC4)ncc3C(F)(F)F)s2)c(C)c1 [Example 14, methyl N-methyl-N-[[3-methyl-4-[5-[2-[(1-methylsulfonylpiperidin-4-yl)amino]-5-(trifluoromethyl)pyrimidin-4-yl]-1,3-thiazol-2-yl]phenyl]methyl]carbamate] | > 1000 nM | 100 to 1000 nM | ≤ 100 nM
7 | Cc1cc(CO)ccc1-c1nc(C)c(-c2nc(NC3CCN(S(C)(=O)=O)CC3)ncc2F)s1 [Example 15, [4-[5-[5-fluoro-2-[(1-methylsulfonylpiperidin-4-yl)amino]pyrimidin-4-yl]-4-methyl-1,3-thiazol-2-yl]-3-methylphenyl]methanol] | > 1000 nM | 100 to 1000 nM | ≤ 100 nM
8 | Cc1nn(CCO)cc1-c1ncc(-c2nc(NC3CCN(S(C)(=O)=O)CC3)ncc2C(F)(F)F)s1 [Example 17, 2-[3-methyl-4-[5-[2-[(1-methylsulfonylpiperidin-4-yl)amino]-5-(trifluoromethyl)pyrimidin-4-yl]-1,3-thiazol-2-yl]pyrazol-1-yl]ethanol] | 100 to 1000 nM | 100 to 1000 nM | 100 to 1000 nM
9 | Cc1ncc(-c2nc(NC3CCN(S(C)(=O)=O)CC3)ncc2C(F)(F)F)s1 [Example 19, N-(1-methylsulfonylpiperidin-4-yl)-4-(2-methyl-1,3-thiazol-5-yl)-5-(trifluoromethyl)pyrimidin-2-amine] | 100 to 1000 nM | ≤ 100 nM | ≤ 100 nM
10 | CS(=O)(=O)N1CCC(Nc2ncc(C(F)(F)F)c(-c3cnc(N)s3)n2)CC1 [Example 20, 5-(2-((1-(methylsulfonyl)piperidin-4-yl)amino)-5-(trifluoromethyl)pyrimidin-4-yl)thiazol-2-amine] | 100 to 1000 nM | ≤ 100 nM | ≤ 100 nM
11 | CC(=O)Nc1ncc(-c2nc(NC3CCN(S(C)(=O)=O)CC3)ncc2C(F)(F)F)s1 [Example 21, N-(5-(2-((1-(methylsulfonyl)piperidin-4-yl)amino)-5-(trifluoromethyl)pyrimidin-4-yl)thiazol-2-yl)acetamide] | 100 to 1000 nM | 100 to 1000 nM | ≤ 100 nM
12 | CC(C)N(C)c1ncc(-c2nc(NC3CCN(S(C)(=O)=O)CC3)ncc2C(F)(F)F)s1 [Example 22, N-isopropyl-N-methyl-5-(2-((1-(methylsulfonyl)piperidin-4-yl)amino)-5-(trifluoromethyl)pyrimidin-4-yl)thiazol-2-amine] | 100 to 1000 nM | ≤ 100 nM | ≤ 100 nM
13 | CS(=O)(=O)N1CCC(Nc2ncc(C(F)(F)F)c(-c3cnc(CO)s3)n2)CC1 [Example 24, [5-[2-[(1-methylsulfonylpiperidin-4-yl)amino]-5-(trifluoromethyl)pyrimidin-4-yl]-1,3-thiazol-2-yl]methanol] | > 1000 nM | 100 to 1000 nM | ≤ 100 nM
14 | CC(C)Oc1ncc(-c2nc(NC3CCN(S(C)(=O)=O)CC3)ncc2C(F)(F)F)s1 [Example 25, N-(1-Methylsulfonylpiperidin-4-yl)-4-(2-propan-2-yloxy-1,3-thiazol-5-yl)-5-(trifluoromethyl)pyrimidin-2-amine] | 100 to 1000 nM | ≤ 100 nM | ≤ 100 nM
15 | CS(=O)(=O)N1CCC(Nc2ncc(C(F)(F)F)c(-c3cnc(Cl)s3)n2)CC1 [Example 26, 4-(2-chlorothiazol-5-yl)-N-(1-(methylsulfonyl)piperidin-4-yl)-5-(trifluoromethyl) pyrimidin-2-amine] | 100 to 1000 nM | 100 to 1000 nM | ≤ 100 nM
16 | CS(=O)(=O)N1CCC(Nc2ncc(C(F)(F)F)c(-c3cnc(OC4CCCC4)s3)n2)CC1 [Example 27, 4-(2-(cyclopentyloxy)thiazol-5-yl)-N-(1-(methylsulfonyl)piperidin-4-yl)-5-(trifluoromethyl)pyrimidin-2-amine] | > 1000 nM | ≤ 100 nM | ≤ 100 nM
17 | CNc1ncc(-c2nc(NC3CCN(S(C)(=O)=O)CC3)ncc2C(F)(F)F)s1 [Example 28, N-methyl-5-[2-[(1-methylsulfonylpiperidin-4-yl)amino]-5-(trifluoromethyl)pyrimidin-4-yl]-1,3-thiazol-2-amine] | ≤ 100 nM | ≤ 100 nM | ≤ 100 nM

Source: patent publication US20240018136A1, “CDK Inhibitors And Their Use As Pharmaceuticals” (Prelude Therapeutics, Incorporated, priority 2022, published 2024)
